Results taken from ChEMBL document CHEMBL4689842, “EUbOPEN Chemogenomics Library wave 1” (2021).

Legend:
Type in all cases: toxicity, cell-based
HEK-293T = test: Incucyte cell viability with HEK293T; settings: human, 10 µM, compound concentration 10 uM
U2OS = test: Incucyte cell viability with U2OS; settings: human, 10 µM, compound concentration 10 uM
Fibroblast = test: Incucyte cell viability with human fibroblast; settings: 10 µM, compound concentration 10 uM
[1] = 0 h, replicate number 1, timepoint 0 hours
[2] = 6 h, replicate number 1, timepoint 6 hours
[3] = 12 h, replicate number 1, timepoint 12 hours
[4] = 18 h, replicate number 1, timepoint 18 hours
[5] = 24 h, replicate number 1, timepoint 24 hours
[6] = 6 h, replicate number 2, timepoint 6 hours
[7] = 24 h, replicate number 2, timepoint 24 hours
[8] = 18 h, replicate number 2, timepoint 18 hours
[9] = 0 h, replicate number 2, timepoint 0 hours
[10] = 12 h, replicate number 2, timepoint 12 hours
Further: filed as whole numbers so only -1 and 0 and 1 occur.

C[C@H](CO)Nc1nc(SCc2cccc(Cl)c2F)nc2[nH]c(=O)sc12
Growth Rate (HEK-293T; [1]): 0
Growth Rate (HEK-293T; [2]): 1
Growth Rate (HEK-293T; [3]): 1
Growth Rate (HEK-293T; [4]): 1
Growth Rate (HEK-293T; [5]): 1
Growth Rate (U2OS; [2]): 1
Growth Rate (U2OS; [6]): 0
Growth Rate (U2OS; [3]): 0
Growth Rate (U2OS; [4]): 0
Growth Rate (U2OS; [5]): 1
Growth Rate (U2OS; [7]): 0
Growth Rate (Fibroblast; [1]): 0
Growth Rate (Fibroblast; [2]): 1
Growth Rate (Fibroblast; [6]): 0
Growth Rate (Fibroblast; [3]): 1
Growth Rate (Fibroblast; [4]): 1
Growth Rate (Fibroblast; [8]): 0
Growth Rate (Fibroblast; [5]): 1

CCNC(=O)c1cc2c(N3CCOC[C@@H]3C)ccnc2[nH]1
Growth Rate (HEK-293T; [1]): 1
Growth Rate (HEK-293T; [9]): 0
Growth Rate (HEK-293T; [2]): 0
Growth Rate (HEK-293T; [3]): 0
Growth Rate (HEK-293T; [4]): 0
Growth Rate (HEK-293T; [5]): 0
Growth Rate (U2OS; [1]): 1
Growth Rate (U2OS; [2]): 1
Growth Rate (U2OS; [6]): 0
Growth Rate (U2OS; [3]): 0
Growth Rate (U2OS; [4]): 0
Growth Rate (U2OS; [5]): 0
Growth Rate (Fibroblast; [1]): 0
Growth Rate (Fibroblast; [2]): 0
Growth Rate (Fibroblast; [6]): 1
Growth Rate (Fibroblast; [3]): 1
Growth Rate (Fibroblast; [10]): 0
Growth Rate (Fibroblast; [4]): 1
Growth Rate (Fibroblast; [8]): 0
Growth Rate (Fibroblast; [5]): 1
Growth Rate (Fibroblast; [7]): 0

N#Cc1c(N)nc(SCC(N)=O)c(C#N)c1-c1ccc(OCC2CC2)cc1
Growth Rate (HEK-293T; [1]): 0
Growth Rate (HEK-293T; [2]): 1
Growth Rate (HEK-293T; [3]): 1
Growth Rate (HEK-293T; [10]): 0
Growth Rate (HEK-293T; [4]): 0
Growth Rate (HEK-293T; [5]): 0
Growth Rate (U2OS; [1]): 0
Growth Rate (U2OS; [6]): 0
Growth Rate (U2OS; [3]): 1
Growth Rate (U2OS; [4]): 1
Growth Rate (U2OS; [5]): 1
Growth Rate (U2OS; [7]): 0
Growth Rate (Fibroblast; [1]): 0
Growth Rate (Fibroblast; [6]): 0
Growth Rate (Fibroblast; [10]): 1
Growth Rate (Fibroblast; [8]): 1
Growth Rate (Fibroblast; [5]): 1

CCCCN(CCCC)C(=O)CN1C[C@@H](c2ccc3c(c2)OCO3)[C@H](C(=O)O)[C@H]1c1ccc(OC)cc1
Growth Rate (HEK-293T; [1]): 0
Growth Rate (HEK-293T; [2]): 1
Growth Rate (HEK-293T; [3]): 1
Growth Rate (HEK-293T; [4]): 1
Growth Rate (HEK-293T; [8]): 0
Growth Rate (HEK-293T; [5]): 1
Growth Rate (HEK-293T; [7]): 0
Growth Rate (U2OS; [2]): 0
Growth Rate (U2OS; [3]): 0
Growth Rate (U2OS; [4]): 0
Growth Rate (U2OS; [5]): 0
Growth Rate (Fibroblast; [1]): 0
Growth Rate (Fibroblast; [6]): 0
Growth Rate (Fibroblast; [10]): 1
Growth Rate (Fibroblast; [4]): 1
Growth Rate (Fibroblast; [5]): 1
Growth Rate (Fibroblast; [7]): 0

CCN(CC)CCCCC1CCN(CC(=O)N2c3ccccc3C(=O)Nc3cccnc32)CC1
Growth Rate (HEK-293T; [1]): 0
Growth Rate (HEK-293T; [2]): 1
Growth Rate (HEK-293T; [3]): 1
Growth Rate (HEK-293T; [4]): 1
Growth Rate (HEK-293T; [5]): 1
Growth Rate (U2OS; [1]): 0
Growth Rate (U2OS; [6]): 0
Growth Rate (U2OS; [3]): 1
Growth Rate (U2OS; [4]): 1
Growth Rate (U2OS; [8]): 0
Growth Rate (U2OS; [5]): 1
Growth Rate (U2OS; [7]): 0
Growth Rate (Fibroblast; [1]): 0
Growth Rate (Fibroblast; [9]): 1
Growth Rate (Fibroblast; [3]): 1
Growth Rate (Fibroblast; [4]): 1
Growth Rate (Fibroblast; [5]): 1

O=C(NCc1ccc(F)cc1)C1CCN(S(=O)(=O)c2cc(Cl)cc(Cl)c2)CC1
Growth Rate (HEK-293T; [1]): 0
Growth Rate (HEK-293T; [2]): 1
Growth Rate (HEK-293T; [3]): 1
Growth Rate (HEK-293T; [10]): 0
Growth Rate (HEK-293T; [4]): 0
Growth Rate (HEK-293T; [5]): 0
Growth Rate (U2OS; [1]): 0
Growth Rate (U2OS; [6]): 0
Growth Rate (U2OS; [3]): 1
Growth Rate (U2OS; [10]): 0
Growth Rate (U2OS; [4]): 0
Growth Rate (U2OS; [8]): 1
Growth Rate (U2OS; [5]): 0
Growth Rate (U2OS; [7]): 1
Growth Rate (Fibroblast; [1]): 0
Growth Rate (Fibroblast; [6]): 1
Growth Rate (Fibroblast; [10]): 1
Growth Rate (Fibroblast; [8]): 1
Growth Rate (Fibroblast; [5]): 1

CCCCN(CCCC)C(=O)CN1C[C@@H](c2cc(OC)c3c(c2)OCO3)[C@H](C(=O)O)[C@H]1CC(C)(C)CCC.Cl
Growth Rate (HEK-293T; [1]): 0
Growth Rate (HEK-293T; [2]): 0
Growth Rate (HEK-293T; [3]): 0
Growth Rate (HEK-293T; [4]): 0
Growth Rate (HEK-293T; [5]): 0
Growth Rate (U2OS; [6]): 0
Growth Rate (U2OS; [3]): 0
Growth Rate (U2OS; [4]): 0
Growth Rate (U2OS; [8]): 1
Growth Rate (U2OS; [5]): 0
Growth Rate (U2OS; [7]): 1
Growth Rate (Fibroblast; [9]): 0
Growth Rate (Fibroblast; [2]): 0
Growth Rate (Fibroblast; [3]): 0
Growth Rate (Fibroblast; [10]): 1
Growth Rate (Fibroblast; [4]): 0
Growth Rate (Fibroblast; [8]): 1
Growth Rate (Fibroblast; [5]): 0
Growth Rate (Fibroblast; [7]): 1
